One molecule from paper PMC6801822, “The Bactericidal Activity of Temporin Analogues Against Methicillin Resistant Staphylococcus aureus” (International Journal of Molecular Sciences, 2019) can be followed below.

As usually defined, the MIC is the smallest concentration in the dilution series that meets the test's criterion for growth inhibition. A low value points to a more susceptible organism.

SMILES strings stand for the structures. ≈ marks a conversion by molar mass, not a printed value. Non-standard residues stand in square brackets, D forms with d. Residues, ends and D or L forms follow the SMILES beside them. AEEA = NCCOCCOCC(=O)O

For assay [1], the system named is MRSA clinical isolate 6674. As to conditions: MRSA clinical isolate 6674 (blood); broth microdilution, MHB, 24 h. (In general: Broth dilution looks for growth in wells or tubes with falling amounts of substance.)
Protocol: (§1) Antimicrobial activity of peptides was analyzed through determination of MIC parameter according to the standard microdilution technique performed on 96-well plates. Mueller-Hinton broth (MHB, Sigma Aldrich, St. Louis, MO, USA) was used as the working medium for all bacterial strains. Briefly, inoculum was prepared from freshly grown cultures of bacteria being at their exponential phase of growth. Each well of 96-well plates containing 100 µL of serially diluted peptides in PBS at desired concentration was inoculated with 100 µL of 10^5 CFU/mL of bacterial suspension. Then plates were incubated overnight 37 °C and absorbance was read at 600 nm after 24 h. Wells without peptide were treated as the positive control, while uninoculated MHB was defined as the negative control. All measurements were run in triplicates.
Assay [2] deals with MRSA clinical isolate 4187. As to conditions: MRSA clinical isolate 4187 (blood); broth microdilution, MHB, 24 h.
Protocol: as §1
Assay [3] deals with MRSA clinical isolate 7501. The settings on record: MRSA clinical isolate 7501 (blood); broth microdilution, MHB, 24 h.
Protocol: as §1
Assay [4] relates to MRSA clinical isolate 2492. The settings on record: MRSA clinical isolate 2492 (blood); broth microdilution, MHB, 24 h.
Protocol: as §1
Assay [5] concerns MRSA clinical isolate 56A1. As to conditions: MRSA clinical isolate 56A1 (skin); broth microdilution, MHB, 24 h.
Protocol: as §1
Assay [6] concerns MRSA clinical isolate 3417. As to conditions: MRSA clinical isolate 3417 (blood); broth microdilution, MHB, 24 h.
Protocol: as §1
Assay [7] relates to MRSA clinical isolate 2706. As to conditions: MRSA clinical isolate 2706 (blood); broth microdilution, MHB, 24 h.
Protocol: as §1
Assay [8] concerns S. aureus USA300 cytoplasmic membrane. Description: Sytox green uptake (membrane permeabilization). Format: cell-based, Staphylococcus aureus. How it is done:
The USA300 strain was grown to mid-logarithmic phase at 37 °C, washed, and resuspended in 10 mM sodium phosphate buffer (pH 7.2) Bacterial cells were then incubated with 1 µM Sytox green for 15 min in the dark. After the addition of desired concentration of peptide conjugate (5–100 µg/mL), the time-dependent increases in fluorescence caused by the binding of the cationic dye to intracellular DNA were monitored (excitation at 485 nm and emission at 520 nm).

For the molecule `CC[C@H](C)[C@H](NC(=O)COCCOCCNC(=O)[C@H](CCCNC(=N)N)NC(=O)[C@H](CC(C)C)NC(=O)[C@H](Cc1ccccc1)NC(=O)CNC(=O)[C@@H](C)NC(=O)[C@@H](N)Cc1ccc(O)cc1)C(=O)N[C@@H](CCCCN)C(=O)N[C@@H](CCCCN)C(=O)N[C@H](C(=O)N[C@@H](CC(C)C)C(=O)N[C@@H](CO)C(=O)N[C@H](CCCCN)C(=O)N[C@H](C(=O)N[C@@H](CCCCN)C(=O)N[C@@H](CCCCN)C(=O)N[C@@H](CC(C)C)C(=O)N[C@@H](CC(C)C)C(N)=O)[C@@H](C)CC)[C@@H](C)CC` [DAL-PEG-DK5] (H-Y[dA]GFLR[AEEA]IKKILS[dK]IKKLL-NH2; N-terminus assumed), the minimum inhibitory concentration (MIC) in assay [1], in assay [2], in assay [3], in assay [4], in assay [5] and in assay [6] was 40 µg/mL (≈ 17.6 µM) each time. Besides, the minimal inhibitory concentration (MIC) in assay [7] turned out to be 40 µg/mL (≈ 17.6 µM). In assay [8] (5 min post-treatment, peptide 10 μg), the “permeabilization of the cell membrane” value is given as “marked permeabilization of the cell membrane”. For the same molecule, in assay [8] (USA300, 1 μM Sytox green, 10 mM sodium phosphate buffer pH 7.2, up to 60 min), the “concentration at which permeabilization of the bacterial membrane reached a plateau” value amounted to 25 µg/mL.
